Laboratory results taken from US20230248776A1, “OSTEOBLASTS DIFFERENTIATED FROM MESENCHYMAL STEM CELLS AND COMPOSITION FOR TREATING BONE DISEASE COMPRISING SAME” (CEFO Co., Ltd., priority 2020, published 2023).

Tested on: umbilical cord-derived mesenchymal stem cells
Experiment: surfactant cytotoxicity and cell growth, CCK-8 in transwell
Type: cell-based
Protocol: The toxicity of poloxamer (poloxamer 407, p407), sodium methyl cocoyl taurate (DIAPON K-SF), polyoxyethylene sorbitan monolaurate (Tween 20) or methylprednisolone, which are known as representative biocompatible surfactants, was confirmed.
Specifically, in the upper chamber in a transwell including a three-dimensional porous membrane, the surfactant p407, DIAPON K-SF or Tween 20 was respectively treated at 0, 0.5 1, 5 or 15% (v/v) and coated for 2 hours in the same manner as in [Example 2], and then, the umbilical cord-derived mesenchymal stem cells obtained in [Example 1] were seeded at 20,000 cells/cm^2. The cell growth medium was placed in the lower chamber and cultured for 3 days. On days 1, 2 and 3, the CCK-8 (Cat. CK04, DOJINDO) solution was added, and after 3 hours of reaction in a 37° C. CO2 incubator, absorbance was measured at 450 nm to analyze cytotoxicity (FIG. 4) and the degree of cell growth (FIG. 5).
Further, in a transwell including a three-dimensional porous membrane, the surfactant p407, methylprednisolone or Tween 20 was treated at a concentration of 4 mM in the upper chamber, and after coating for 2 hours in the same manner as in [Example 2], the umbilical cord-derived mesenchymal stem cells obtained in [Example 1] were seeded at 20,000 cell/cm^2. The cell growth medium was placed in the lower chamber and cultured for 3 days. On days 1, 2 and 3, the CCK-8 solution was added, and after 3 hours of reaction in a 37° C. CO2 incubator, absorbance was measured at 450 nm to analyze cytotoxicity (FIG. 6) and the degree of cell growth (FIG. 7).

| Molecule | cell proliferation, CCK-8 day 1 to day 3 (surfactant 4 mM coating (FIG. 7)) | cytotoxicity, CCK-8 day 1 (surfactant 4 mM coating, day 1 (FIG. 6)) | cell proliferation, CCK-8 day 1 to day 3 (surfactant 0, 0.5, 1, 5 or 15% (v/v) coating (FIG. 5)) | cytotoxicity, CCK-8 day 1 (surfactant 0, 0.5, 1, 5 or 15% (v/v) coating, day 1 (FIG. 4)) |
| --- | --- | --- | --- | --- |
| C[C@H]1C[C@@H]2[C@H]([C@@H](O)C[C@@]3(C)[C@H]2CC[C@]3(O)C(=O)CO)[C@@]2(C)C=CC(=O)C=C12 [methylprednisolone] | cells did not proliferate | toxic to cells | – | – |
| sodium methyl cocoyl taurate [DIAPON K-SF] | – | – | cells did not proliferate | toxic to cells |
